A value given as a limit tells only on which side of the number the result lay.

In the experiment the target is Ba/F3_KRAS^G12D cells (Homo sapiens, UniProt P01116, G12D, cells depend on it). The experiment can be described thus: Ba/F3 KRAS^G12D cell proliferation assay (cell-titer Glo). It is filed as cell-based. The note with it: cell growth inhibition, treated with the compounds for 3 days, read-out: BaF3_KRAS^G12D IC50. The procedure: Cells were seeded at a density of 5×10^3 per well into 96-well plate and incubated overnight. Serial diluted compounds were added to each well. Cells were treated with the compounds for 3 days, after which cell-titer Glo reagent (Promega #G7572) was used to assess cell proliferation. The luminescence signal was then collected on Tecan Spark plate reader. […] Cell growth inhibition of IC50 is calculated with the equation of Y=Bottom+(Top−Bottom)/(1+10^((LogIC50−X)*HillSlope))
Chain of Ba/F3_KRAS^G12D cells (P01116 whole entry G12D): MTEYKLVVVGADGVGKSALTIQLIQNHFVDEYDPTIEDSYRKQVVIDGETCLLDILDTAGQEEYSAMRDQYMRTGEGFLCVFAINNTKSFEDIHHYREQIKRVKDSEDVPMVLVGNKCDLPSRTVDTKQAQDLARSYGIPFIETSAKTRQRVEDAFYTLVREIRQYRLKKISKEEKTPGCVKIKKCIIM
As for `C#Cc1c(F)ccc2cc(O)cc(-c3nc(O)c4c(N5CC6CCC(C5)N6)nc(OCCOC)nc4c3F)c12` [Compound 193], the GI50 is under 500 nM.
The figure for `C#Cc1c(F)ccc2cc(O)cc(-c3nc(OC(C)C)c4c(N5CC6CCC(C5)N6)nc(OCCN(C)C)nc4c3F)c12` [Compound 194] is under 500 nM; for `C#Cc1c(F)ccc2cc(O)cc(-c3nc(O)c4c(N5CC6CCC(C5)N6)nc(OC[C@@H]5CCCN5C)nc4c3F)c12` [Compound 196] it is 500 to 5000 nM.
The figure for `Cc1nc(N)cc(-c2nc(OC(C)C)c3c(N4CC5CCC(C4)N5)nc(OC[C@@]45CCCN4C[C@H](F)C5)nc3c2F)c1C(F)(F)F` [Compound 198] is under 500 nM; for `Cc1cc(-c2nc(OC(C)C)c3c(N4CC5CCC(C4)N5)nc(OC[C@@]45CCCN4C[C@H](F)C5)nc3c2F)c(C(F)(F)F)c(N)n1` [Compound 199] it is under 500 nM.
The figure for `C#Cc1c(F)ccc2cc(N)cc(-c3nc(OC(C)C)c4c(N5CC6CCC(C5)N6)nc(OC[C@@]56CCCN5C[C@H](F)C6)nc4c3F)c12` [Compound 200] is under 500 nM; for `C#Cc1c(F)ccc2cc(N)cc(-c3nc(O)c4c(N5CC6CCC(C5)N6)nc(OC[C@@]56CCCN5C[C@H](F)C6)nc4c3F)c12` [Compound 201] it is 500 to 5000 nM.
For the molecule `C#Cc1c(F)ccc2c(F)c(N)cc(-c3nc(OC(C)C)c4c(N5CC6CCC(C5)N6)nc(OC[C@@]56CCCN5C[C@H](F)C6)nc4c3F)c12` [Compound 202], the GI50 is under 500 nM.
On to `C#Cc1c(F)ccc2cc(O)cc(-c3nc(OC(C)C)c4c(N5CC6CCC(C5)N6C)nc(OC[C@@]56CCCN5C[C@H](F)C6)nc4c3F)c12` [Compound 203], for which the GI50 was under 500 nM.
Take `C#Cc1c(F)ccc2cc(O)cc(-c3nc(OC(C)C)c4c(N5CC6CCC(C5)N6)nc(OC[C@@H]5C[C@H](F)CN5C)nc4c3F)c12` [Compound 204]: the GI50 is under 500 nM.
As for `C#Cc1c(F)ccc2cc(O)cc(-c3nc(C4CC4)c4c(N5CC6CCC(C5)N6)ncnc4c3F)c12` [Compound 205], the GI50 was under 500 nM.
Under `C#Cc1c(F)ccc2cc(N)cc(-c3nc(OC(C)C)c4c(N5CC6CCC(C5)N6)nc(OC[C@@H]5C[C@@H](F)CN5C)nc4c3F)c12` [Compound 206] stands under 500 nM; under `C#Cc1c(F)ccc2cc(N)cc(-c3nc(OC(C)C)c4c(N5CC6CCC(C5)N6)nc(OC[C@@H]5C[C@H](F)CN5C)nc4c3F)c12` [Compound 207], under 500 nM.
For `C#Cc1c(F)ccc2cc(N)cc(-c3nc(OC)c4c(N5CC6CCC(C5)N6)nc(OC[C@@H]5C[C@@H](F)CN5C)nc4c3F)c12` [Compound 208], the GI50 was under 500 nM.
As for `C#Cc1c(F)ccc2cc(N)cc(-c3nc(OC)c4c(N5CC6CCC(C5)N6)nc(OC[C@@H]5C[C@H](F)CN5C)nc4c3F)c12` [Compound 209], the GI50 is under 500 nM.
For `C#Cc1c(F)ccc2cc(N)cc(-c3nc(O)c4c(N5CC6CCC(C5)N6)nc(OC[C@@H]5C[C@@H](F)CN5C)nc4c3F)c12` [Compound 210], the GI50 was 500 to 5000 nM.
On to `C#Cc1c(F)ccc2cc(O)cc(-c3nc(O)c4c(N5CC6CCC(C5)N6)nc(C(F)F)nc4c3F)c12` [Compound 211], for which the GI50 fell in the range of 500 to 5000 nM.
In the case of `C#Cc1c(F)ccc2cc(O)cc(-c3nc(OCC)c4c(N5C[C@H]6CC[C@@H](C5)[C@@H]6O)nc(OC[C@@]56CCCN5C[C@H](F)C6)nc4c3F)c12` [Compound 212], the GI50 was under 500 nM.
Turning to `CCOc1nc(-c2cc(N)cc(F)c2C(F)(F)F)c(F)c2nc(OC[C@@]34CCCN3C[C@H](F)C4)nc(N3CC4CCC(C3)N4)c12` [Compound 213], the GI50 was under 500 nM.
Turning to `CCOc1nc(-c2cc(O)cc(F)c2C(F)(F)F)c(F)c2nc(OC[C@@]34CCCN3C[C@H](F)C4)nc(N3CC4CCC(C3)N4)c12` [Compound 214], the GI50 fell in the range of 500 to 5000 nM.
Under `CCc1c(F)ccc2cc(O)cc(-c3nc(OC)c4c(N5CC6CCC(C5)N6)nc(OC[C@]56CCCN5[C@@H](COC(=O)N(C)C)CC6)nc4c3F)c12` [Compound 215] stands under 500 nM; under `C#Cc1c(F)ccc2cccc(-c3nc(OC)c4c(N5CC6CCC(C5)N6)nc(OC[C@]56CCCN5[C@@H](COC(=O)N(C)C)CC6)nc4c3F)c12` [Compound 216], under 500 nM; under `CCc1c(F)ccc2cccc(-c3nc(OC)c4c(N5CC6CCC(C5)N6)nc(OC[C@]56CCCN5[C@@H](COC(=O)N(C)C)CC6)nc4c3F)c12` [Compound 217], under 500 nM.
Under `C#Cc1c(F)ccc2cc(O)cc(-c3nc(OC(C)C)c4c(N5CC6CCC(C5)N6)nc(C)nc4c3F)c12` [Compound 218] stands under 500 nM; under `C#Cc1c(F)ccc2cc(O)cc(-c3nc(OC(C)C)c4c(N5CCNCC(F)(F)C5)nc(OC[C@@]56CCCN5C[C@H](F)C6)nc4c3F)c12` [Compound 219], under 500 nM; under `C#Cc1c(F)ccc2cc(O)cc(-c3nc(OC(C)C)c4c(N5CCNC(C(F)F)C5)nc(OC[C@@]56CCCN5C[C@H](F)C6)nc4c3F)c12` (some centres unmarked) [Compound 220], under 500 nM.
For `C#Cc1c(F)ccc2cc(O)cc(-c3nc(OCC)c4c(N5CC6CCC(C5)N6)ncnc4c3F)c12` [Compound 221], the GI50 was under 500 nM.
Under `C#Cc1c(F)ccc2cccc(-c3nc(OC(C)C)c4c(N5CC6CCC(C5)N6)nc(OC[C@]56CCCN5[C@@H](COC(=O)N(C)C)CC6)nc4c3F)c12` [Compound 222] stands under 500 nM; under `CCc1c(F)ccc2cccc(-c3nc(OC(C)C)c4c(N5CC6CCC(C5)N6)nc(OC[C@]56CCCN5[C@@H](COC(=O)N(C)C)CC6)nc4c3F)c12` [Compound 223], under 500 nM; under `C#Cc1c(F)ccc2cc(O)cc(-c3nc(OC)c4c(N5CC6CCC(C5)N6)nc(OCC5(CN6CCN(C(=O)CCCCCCCCCCCCCCC)CC6)CC5)nc4c3F)c12` [Compound 224], under 500 nM.
Consider `C#Cc1c(F)ccc2cc(O)cc(-c3nc(OC(C)C)c4c(N5CC6CCC(C5)N6)nc(OC[C@]56CCCN5[C@@H](COC(=O)N(C)C)CC6)nc4c3F)c12` [Compound 225], for which the GI50 is under 500 nM.
Under `C#Cc1c(F)ccc2cc(O)cc(-c3nc(OC(C)C)c4c(N5CC6CCC(C5)N6)nc(OC[C@]56CCCN5[C@H](COC(=O)N(C)C)CC6)nc4c3F)c12` [Compound 226] stands under 500 nM; under `C#Cc1c(F)ccc2cc(O)cc(-c3nc(OC(C)C)c4c(N5CC6CCC(C5)N6)nc(OC[C@]56CCCN5[C@@H](CO)CC6)nc4c3F)c12` [Compound 227], under 500 nM.
With `C#Cc1c(F)ccc2cc(O)cc(-c3nc(OC(C)C)c4c(N5CC6CCC(C5)N6)nc(OC[C@]56CCCN5[C@H](CO)CC6)nc4c3F)c12` [Compound 228], the GI50 is under 500 nM.
Turning to `C#Cc1c(F)ccc2cc(O)cc(-c3nc(OC(C)C)c4c(N5CC6CCC(C5)N6)nc(OCC5(CN6CCOCC6)CC5)nc4c3F)c12` [Compound 229], the GI50 was under 500 nM.
The figure for `C#Cc1c(F)ccc2cc(O)cc(-c3nc(OC(C)C)c4c(N5CC6CCC(C5)N6)nc(OCC5(CN6CCN(C)CC6)CC5)nc4c3F)c12` [Compound 230] is under 500 nM.
For `C#Cc1c(F)ccc2cc(O)cc(-c3nc(OC(C)C)c4c(N5CC6CCC(C5)N6)nc(OCC5(CN6CCN(C(C)=O)CC6)CC5)nc4c3F)c12` [Compound 231], the GI50 is under 500 nM.
The figure for `C#Cc1c(F)ccc2cc(O)cc(-c3nc(OC(C)C)c4c(N5CC6CCC(C5)N6)nc(OCC5(CN6CCN(C(=O)OC)CC6)CC5)nc4c3F)c12` [Compound 232] is under 500 nM; for `C#Cc1c(F)ccc2cc(O)cc(-c3nc(OCC)c4c(N5CC6CCC(C5)N6)nc(OC[C@]56CCCN5[C@@H](COC(=O)N(C)C)CC6)nc4c3F)c12` [Compound 233] it is under 500 nM.
The figure for `C#Cc1c(F)ccc2cc(O)cc(-c3nc(OCC)c4c(N5CC6CCC(C5)N6)nc(OCC5(CN6CCOCC6)CC5)nc4c3F)c12` [Compound 234] is under 500 nM; for `C#Cc1c(F)ccc2cc(O)cc(-c3nc(OC(C)C)c4c(N5CC6CCC(C5)N6)nc(OC[C@@H]5C[C@@H](OC(=O)N(C)C)CN5C)nc4c3F)c12` [Compound 235] it is under 500 nM.
The figure for `C#Cc1c(F)ccc2cccc(-c3nc(OCC)c4c(N5CC6CCC(C5)N6)nc(OC[C@]56CCCN5[C@@H](COC(=O)N(C)C)CC6)nc4c3F)c12` [Compound 236] is under 500 nM; for `CCOc1nc(-c2cccc3ccc(F)c(CC)c23)c(F)c2nc(OC[C@]34CCCN3[C@@H](COC(=O)N(C)C)CC4)nc(N3CC4CCC(C3)N4)c12` [Compound 237] it is under 500 nM.
Regarding `C#Cc1c(F)ccc2cccc(-c3nc(OC(C)C)c4c(N5CC6CCC(C5)N6)nc(OC[C@]56CCCN5[C@@H](CO)CC6)nc4c3F)c12` [Compound 238], the GI50 is under 500 nM.
Take `C#Cc1c(F)ccc2cc(O)cc(-c3nc(O)c4c(N5CC6CCC(C5)N6)nc(OC[C@]56CCCN5[C@@H](COC(=O)N(C)C)CC6)nc4c3F)c12` [Compound 239]: the GI50 lay in the range of 500 to 5000 nM.
Under `C#Cc1c(F)ccc2cc(O)cc(-c3nc(OC(C)C)c4c(N5CCNC6(CC6)C5)nc(OC[C@@]56CCCN5C[C@H](F)C6)nc4c3F)c12` [Compound 241] stands under 500 nM; under `C#Cc1c(F)ccc2cc(O)cc(-c3nc(OC(C)C)c4c(N5CCNC(CF)C5)nc(OC[C@@]56CCCN5C[C@H](F)C6)nc4c3F)c12` (some centres unmarked) [Compound 242], under 500 nM.
Under `C#Cc1c(F)ccc2cc(O)cc(-c3nc(OC)c4c(N5CC6CCC(C5)N6)nc(OC[C@]56CCCN5[C@@H](COC(=O)N(C)CCCCCCCCCCCCCCCC)CC6)nc4c3F)c12` [Compound 243] stands under 500 nM.
Under `C#Cc1c(F)ccc2cccc(-c3nc(OC(C)C)c4c(N5CC6CCC(C5)N6)nc(OC[C@]56CCCN5[C@@H](COC(=O)N5CCOCC5)CC6)nc4c3F)c12` [Compound 245] stands under 500 nM; under `C#Cc1c(F)ccc2cccc(-c3nc(OC(C)C)c4c(N5CC6CCC(C5)N6)nc(OC[C@@H]5C[C@@H](OC(=O)N(C)CCCCCCCCCCCCCCCC)CN5C)nc4c3F)c12` [Compound 246], 500 to 5000 nM.

The values above are taken from US20230357233A1, “HETEROARYL COMPOUNDS, PREPARATION METHODS AND USES THEREOF” (INVENTISBIO CO., LTD., priority 2020, published 2023).
